Reference: patent publication US9512105B2, “1-substituted 4-arylpiperazine as kappa opioid receptor antagonists” (RESEARCH TRIANGLE INSTITUTE, priority 2011, dated 2016)
Where two headings read alike, the source gives them in different places.

What was measured:
[1] = molecular target: T1, cloned human μ-opioid receptor (Homo sapiens, UniProt P35372); test: Inhibition of DAMGO-stimulated [35S]GTPγS binding; format: biochemical
T1 construct: expressed in transfected cells

[2] = molecular target: T2, cloned human δ-opioid receptor (Homo sapiens, UniProt P41143); test: Inhibition of DPDPE-stimulated [35S]GTPγS binding; format: biochemical
T2 construct: expressed in transfected cells

[3] = molecular target: T3, cloned human κ-opioid receptor (Homo sapiens, UniProt P41145); test: Inhibition of U69,593-stimulated [35S]GTPγS binding; format: biochemical; details: for δ/κ / μ/κ: ratio of Ke values; for δ/κ: selectivity for κ relative to δ; for μ/κ: selectivity for κ relative to μ
T3 construct: expressed in transfected cells

[4] = antagonism of DAMGO-stimulated [35S]GTPγS binding, cloned human μ receptor, read-out: μ, DAMGO Ke
[5] = antagonism of DPDPE-stimulated [35S]GTPγS binding, cloned human δ receptor, read-out: δ, DPDPE Ke
[6] = antagonism of U69,593-stimulated [35S]GTPγS binding, cloned human κ receptor, read-out: κ, U69,593 Ke

T1 sequence (P35372 whole entry): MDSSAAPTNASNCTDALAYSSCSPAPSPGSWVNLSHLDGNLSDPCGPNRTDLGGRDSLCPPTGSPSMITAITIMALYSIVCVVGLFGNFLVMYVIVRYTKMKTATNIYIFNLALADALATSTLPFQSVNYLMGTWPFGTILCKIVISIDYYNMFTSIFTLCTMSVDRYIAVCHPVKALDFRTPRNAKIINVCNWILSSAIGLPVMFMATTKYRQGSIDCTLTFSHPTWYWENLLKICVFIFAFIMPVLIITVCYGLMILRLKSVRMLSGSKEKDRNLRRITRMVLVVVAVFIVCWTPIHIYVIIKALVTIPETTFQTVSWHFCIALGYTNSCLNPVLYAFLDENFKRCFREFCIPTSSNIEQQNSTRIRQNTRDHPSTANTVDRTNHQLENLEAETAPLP
T3 sequence (P41145 whole entry): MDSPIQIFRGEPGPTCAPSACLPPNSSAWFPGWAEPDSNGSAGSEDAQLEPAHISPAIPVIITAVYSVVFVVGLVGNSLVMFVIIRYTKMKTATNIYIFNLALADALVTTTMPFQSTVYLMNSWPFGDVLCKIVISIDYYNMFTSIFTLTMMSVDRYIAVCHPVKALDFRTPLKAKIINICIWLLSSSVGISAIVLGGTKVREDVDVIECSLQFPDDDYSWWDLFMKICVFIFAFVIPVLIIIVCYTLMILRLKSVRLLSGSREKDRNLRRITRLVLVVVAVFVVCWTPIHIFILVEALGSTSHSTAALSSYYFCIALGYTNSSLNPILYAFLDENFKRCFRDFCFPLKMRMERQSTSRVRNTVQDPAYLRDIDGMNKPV
T2 sequence (P41143 whole entry): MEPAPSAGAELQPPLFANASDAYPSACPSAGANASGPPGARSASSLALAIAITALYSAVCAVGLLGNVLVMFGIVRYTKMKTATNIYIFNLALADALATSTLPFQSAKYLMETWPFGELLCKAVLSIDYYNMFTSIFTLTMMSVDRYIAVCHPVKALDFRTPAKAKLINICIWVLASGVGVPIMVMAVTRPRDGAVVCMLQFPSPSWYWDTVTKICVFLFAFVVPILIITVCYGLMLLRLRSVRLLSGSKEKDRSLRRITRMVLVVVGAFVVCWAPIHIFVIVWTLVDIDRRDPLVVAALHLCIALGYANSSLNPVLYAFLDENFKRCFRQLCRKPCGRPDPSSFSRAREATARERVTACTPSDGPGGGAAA

SMILES | Kb [1, 4] [nM] | Kb [2, 5] [nM] | Kb [3, 6] [nM] | δ/κ [3] | μ/κ [3] | melting point [°C] | δ/κ ([3]; Dihydrochloride) | Kb [1] [nM] | Kb [2] [nM] | Kb [3] [nM]
CC(C)[C@@H](CN1CCN(c2cccc(O)c2)[C@@H](C)C1)NC(=O)c1ccc(Oc2cccc(Br)c2)cc1.Cl.Cl [Compound 19d, 4-(3-Bromophenoxy)-N-[(1S)-1-{[(3S)-4-(3-hydroxyphenyl)-3-methylpiperazin-1-yl]methyl}-2-methylpropyl]benzamide Dihydrochloride] | 17 ± 6.3 | 42 ± 19 | 0.48 ± 0.02 | 88 | 35 | 106 to 109 |  |  |  | 
Cc1cccc(Oc2ccc(C(=O)N[C@H](CN3CCN(c4cccc(O)c4)[C@@H](C)C3)C(C)C)cc2)c1O.Cl.Cl [Compound 19e, 4-(2-Hydroxy-3-methylphenoxy)-N-[(2S)-1-[(3S)-4-(3-hydroxyphenyl)-3-methylpiperazin-1-yl]-3-methylbutan-2-yl]benzamide Dihydrochloride] | 23.8 ± 8.9 | 92.7 ± 14 | 0.34 ± 0.16 |  |  | 173 |  |  |  | 
Cc1cc(C)cc(Oc2ccc(C(=O)N[C@H](CN3CCN(c4cccc(O)c4)[C@@H](C)C3)C(C)C)cc2)c1.Cl.Cl [Compound 19f, 4-(3,5-Dimethylphenoxy)-N-[(1S)-1-{[(3S)-4-(3-hydroxyphenyl)-3-methylpiperazin-1-yl]methyl}-2-methylpropyl]benzamide Dihydrochloride] | 25 ± 7 | 78 ± 20 | 0.98 ± 0.06 | 80 | 26 | 117 to 120 |  |  |  | 
Cc1cccc(Oc2ccc(C(=O)N[C@H](CN3CCN(c4cccc(O)c4)[C@@H](C)C3)C(C)C)cc2C)c1.Cl.Cl [Compound 19g, N-[(2S)-1-[(3S)-4-(3-Hydroxyphenyl)-3-methylpiperazin-1-yl]-3-methylbutan-2-yl]-3-methyl-4-(3-methylphenoxy)benzamide Dihydrochloride] | 14.4 ± 3.9 | 21 ± 6 | 0.16 ± 0.03 |  |  | 124 to 130 | 131 |  |  | 
COc1cc(C(=O)N[C@H](CN2CCN(c3cccc(O)c3)[C@@H](C)C2)C(C)C)ccc1Oc1cccc(C)c1.Cl.Cl [Compound 19h, N-[(2S)-1-[(3S)-4-(3-Hydroxyphenyl)-3-methylpiperazin-1-yl]-3-methylbutan-2-yl]-3-methoxy-4-(3-methylphenoxy)benzamide Dihydrochloride] | 35.1 ± 15 | 93 ± 4 | 0.25 ± 0.07 |  |  | 128 to 131 |  |  |  | 
Cc1cccc(Oc2ccc(C(=O)N[C@H](CN3CCN(c4cccc(O)c4)[C@@H](C)C3)C(C)C)cc2O)c1.Cl.Cl [Compound 19i, 3-Hydroxy-N-[(2S)-1-[(3S)-4-(3-hydroxyphenyl)-3-methylpiperazin-1-yl]-3-methylbutan-2-yl]-4-(3-methylphenoxy)benzamide Dihydrochloride] | 13.7 ± 5.6 | 81 ± 35 | 0.57 ± 0.14 | 142 | 24 | 195 to 200 |  |  |  | 
Cc1cccc(Oc2ccc(C(=O)N[C@H](CN3CCN(c4cccc(O)c4)[C@@H](C)C3)C(C)C)c(C)c2)c1.Cl.Cl [Compound 19j, N-[(1S)-1-{[(3S)-4-(3-Hydroxyphenyl)-3-methylpiperazin-1-yl]methyl}-2-methylpropyl]-2-methyl-4-(3-methylphenoxy)benzamide Dihydrochloride] |  |  | 0.65 ± 0.2 | 28 | 22 | 164 to 167 |  | 14 ± 3 | 18 ± 3 | 
COc1cc(Oc2cccc(C)c2)ccc1C(=O)N[C@H](CN1CCN(c2cccc(O)c2)[C@@H](C)C1)C(C)C.Cl.Cl [Compound 19k, N-[(1S)-1-{[(3S)-4-(3-Hydroxyphenyl)-3-methylpiperazin-1-yl]methyl}-2-methylpropyl]-2-methoxy-4-(3-methylphenoxy)benzamide Dihydrochloride] | 49 ± 14 | 63 ± 20 | 1.3 ± 0.03 | 48 | 38 | 99 to 102 |  |  |  | 
Cc1cccc(Oc2ccc(C(=O)N[C@H](CN3CCN(c4cccc(O)c4)[C@@H](C)C3)C(C)C)c(O)c2)c1.Cl.Cl [Compound 19l, 2-Hydroxy-N-[(1S)-1-{[(3S)-4-(3-hydroxyphenyl)-3-methylpiperazin-1-yl]methyl}-2-methylpropyl]-4-(3-methylphenoxy)benzamide Dihydrochloride] |  |  |  | 129 | 81 | 119 to 123 |  | 145 ± 48 | 233 ± 90 | 1.8 ± 0.3
COc1cc(C(=O)N[C@H](CN2CCN(c3cccc(O)c3)[C@@H](C)C2)C(C)C)ccc1Oc1ccccc1O.Cl.Cl [Compound 19m, 4-(2-Hydroxyphenoxy)-N-[(1S)-1-{[(3S)-4-(3-hydroxyphenyl)-3-methylpiperazin-1-yl]methyl}-2-methylpropyl]-3-methoxybenzamide Dihydrochloride] | 74 ± 23 |  | 16.3 ± 2.7 | 4 | 5 | 95 to 97 |  |  | 67 ± 47 | 
COc1cc(C(=O)N[C@H](CN2CCN(c3cccc(O)c3)[C@@H](C)C2)C(C)C)ccc1Oc1cc(C)ccc1O.Cl.Cl [Compound 19o, 4-(2-Hydroxy-5-methylphenoxy)-N-[(1S)-1-{[(3S)-4-(3-hydroxyphenyl)-3-methylpiperazin-1-yl]methyl}-2-methylpropyl]-3-methoxybenzamide Dihydrochloride] |  |  | 6.2 ± 2.2 | 6 | 2 | 100 to 103 |  | 10 ± 2.6 | 37 ± 13 | 
Cc1ccc(O)c(Oc2ccc(C(=O)N[C@H](CN3CCN(c4cccc(O)c4)[C@@H](C)C3)C(C)C)cc2Cl)c1.Cl.Cl [Compound 19p, 3-Chloro-4-(2-hydroxy-5-methylphenoxy)-N-[(1S)-1-{[(3S)-4-(3-hydroxyphenyl)-3-methylpiperazin-1-yl]methyl}-2-methylpropyl]benzamide Dihydrochloride] | 8.2 ± 1.7 | 15 ± 3.6 | 3 ± 1.1 | 5 | 3 | 145 to 148 |  |  |  | 
